Laboratory results taken from PMC11054303, “Design and Synthesis of Novel N-Benzylidene Derivatives of 3-Amino-4-imino-3,5-dihydro-4H-chromeno[2,3-d]pyrimidine under Microwave, In Silico ADME Predictions, In Vitro Antitumoral Activities and In Vivo Toxicity” (Pharmaceuticals, 2024).

How the values were obtained:
T47D breast cancer cells = test system: T47D breast cancer cells; set-up: method as in PMID 15542776; details: cited from earlier work
HCT 116 = assay: Antiproliferative assay, HCT 116; assay type: cell-based, human; details: for IC50: Homo sapiens, HCT-116, 48 h incubation, average of three assays, standard error ± 0.5 μM; for Selectivity Index (SI) HCT 116: SI = IC50 fibroblasts/IC50 on HCT 116
Procedure: (§1) The potential antiproliferative activity of these novel 3-(N-phenylmethyliden)amino-4-imino-3,5-dihydro-4H-chromeno[2,3-d]pyrimidine 10(a-i) and 10-(N-phenylmethyliden)amino-11-imino-11H-naphto[1′,2′:5,6]pyrano[2,3-d]pyrimidine 10(j-l) was evaluated in a panel of eight tumoral cell lines and in diploid skin fibroblasts used as normal cell lines for control. For these antitumor assays, chosen cell lines represent diverse types of human cancer, which are, respectively, human hepatocellular carcinoma (Huh7 D12), human colon adenocarcinoma (Caco2), human breast adenocarcinoma (MDA-MB231), MDA-MB468 for human breast carcinoma which correspond to the Triple Negative Breast Cancer (TNBC), human colon carcinoma (HCT116), PC3 as cell line initiated from bone metastasis of grade IV prostatic adenocarcinoma from a person, MCF7 as breast cancer line isolated from a person and PANC1, as human pancreatic cancer cell line. The potential antiproliferative activity was preliminarily evaluated in vitro at a 25 μM single dose.
(§2) The IC50 was calculated from the full dose-response curve and used as a parameter for the antiproliferative activity of the new compounds.
(§3) Skin diploid fibroblastic cells were provided by BIOPREDIC International Company (Rennes, France). Huh-7D12 (Ref ECACC: 01042712), Caco2 (Ref ECACC: 86010202), MDA-MB-231 (Ref ECACC: 92020424), MDA-MB-468, HCT-116 (Ref ECACC: 91091005), PC3 (Ref ECACC: 90112714), and MCF7 cell lines were obtained from the ECACC collection. PANC1 cell lines, a generous gift of LBAI Inserm 1227 (Brest, France). Cells were grown according to ECACC recommendations in DMEM for Huh-D12, MDA-MB-231, MDA-MB-468 and fibroblast, in EMEM for Caco2, in McCoy’s for HCT-116 and RPMI for PC3 at 37 °C and 5% CO2. All culture media with 10% of FBS, 1% of penicillin-streptomycin and 2 mM glutamine.
(§4) Chemicals were solubilized in DMSO at a concentration of 10 mM (stock solution) and diluted in a culture medium to the desired final concentrations. […] The toxicity test of the chemicals on these cells was as follows: 2 × 10^3 cells for HCT-116 cells or 4 × 10^3 for the other cells were seeded in 96-multi-well plates in triplicate and left for 24 h for attachment, spreading and growing. Then, cells were exposed for 48 h to increasing concentrations of chemicals, ranging from 0.1 μM to 25 μM, in a final volume of 120 μL of culture medium. After 48 h of treatment, cells were washed in PBS and fixed in a cooled 90% ethanol/5% acetic acid solution for 20 min. The nuclei were stained with Hoechst 3342 (B2261 Merck Sigma-Aldrich) and counted. Image acquisition and analysis were performed using automated imaging analysis with a Cellomics Arrayscan VTI/HCS Reader (Thermo/Scientific, Waltham, MA, USA). The survival percentages were calculated as the percentage of cell number after chemical treatment over cell number after DMSO treatment. The IC50 was graphically determined.

PANC1 = assay: Antiproliferative assay, PANC1; assay type: cell-based, human; details: Homo sapiens, PANC-1; 48 h incubation; average of three assays, standard error ± 0.5 μM
Procedure: as §1, §2, §3, §4

MCF7 = assay: Antiproliferative assay, MCF7; assay type: cell-based, human; details: for IC50: Homo sapiens, MCF7, 48 h incubation, average of three assays, standard error ± 0.5 μM
Procedure: as §1, §2, §3, §4

MDA MB468 = assay: Antiproliferative assay, MDA MB468; assay type: cell-based, human; details: for IC50: Homo sapiens, MDA-MB-468, 48 h incubation, average of three assays, standard error ± 0.5 μM
Procedure: as §1, §2, §3, §4

MDA MB231 = assay: Antiproliferative assay, MDA MB231; assay type: cell-based, human; details: for IC50: Homo sapiens, MDA-MB-231, 48 h incubation, average of three assays, standard error ± 0.5 μM
Procedure: as §1, §2, §3, §4

Caco2 = assay: Antiproliferative assay, Caco2; assay type: cell-based, human; details: Homo sapiens, Caco-2; 48 h incubation; average of three assays, standard error ± 0.5 μM
Procedure: as §1, §2, §3, §4

Fibroblasts = assay: Antiproliferative assay, diploid skin fibroblasts (normal cells); assay type: cell-based; details: Fibroblast; 48 h incubation; average of three assays, standard error ± 0.5 μM
Procedure: as §1, §2, §3, §4

tumor cell lines = assay: Antiproliferative assay, panel of tumoral cell lines; assay type: cell-based; details: Homo sapiens, 48 h, summary over tumoral cell lines of Table 3, 48 h; read-out: IC50 on tumor cell lines (span over the panel)
Procedure: as §1, §2, §3, §4

PC3 = assay: Antiproliferative assay, PC3; assay type: cell-based, human; details: for IC50: Homo sapiens, PC-3, 48 h incubation, average of three assays, standard error ± 0.5 μM
Procedure: as §1, §2, §3, §4

Huh7 D12 = assay: Antiproliferative assay, Huh7 D12; assay type: cell-based, human; details: for IC50: Homo sapiens, Huh-7D12, 48 h incubation, average of three assays, standard error ± 0.5 μM
Procedure: as §1, §2, §3, §4

[1] = Antiproliferative assay, Caco2; assay type: cell-based, human; details: human, Caco-2; SI = IC50 fibroblasts/IC50 on Caco2; read-out: Selectivity Index (SI) Caco2
Procedure: as §1, §2, §3, §4

[2] = test system: zebrafish Danio rerio embryos; assay: Angiogenesis of vessels in mCherry transgenic zebrafish embryos; assay type: in vivo; details: 1.67 μM, 72 hpf
From the text: Another interest of zebrafish Danio rerio is the possibility to deeply evaluate the effects of angiogenic compounds. In our model, the formation of most vessels is complete, the circulation is present, and the heart is beating after 28 hpf of development. Angiogenesis begins in the somites and in the anterior portion of the embryos. Many zebrafish blood vessels form by angiogenic sprouting and appear to require the same proteins required for blood vessel growth in mammals. By using the mCherry line transgenic zebrafish, it is possible to analyze the direct effect of a compound on the angiogenesis of dorsal vessels. Zebrafish embryos can survive up to a week without an intact circulatory system because defective vessel formation has no immediate lethal effect.
These experiments were performed in four technical replicates.

[3] = test system: zebrafish Danio rerio embryos; details: transgenic line Tg(kdrl:Hsa.HRAS-mCherry)s896, zebrafish (Danio rerio), in vivo, 72 hpf, 1.67 μM
Procedure: (§5) Fertilized eggs at 24–48 h post-fertilization (hpf) were selected and transferred to a 96-well plate (1 embryo/well). […] DMSO (0.6%) was used as vehicle control for the test compounds. The exposure duration continued up to 72 hpf because it is the endpoint of embryonic development [41]. The dead embryos were eliminated, and the fertilized eggs were imaged at 0, 24, 48 and 72 hpf.
(§6) Eggs were collected 2 h post-fertilization (hpf) and kept in glass Petri dishes containing water for subsequent examination under a binocular microscope to confirm fertilization. […] Chemical treatments were performed by adding DMSO alone (negative control), or test molecule. These experiments were performed in four technical replicates.
(§7) The experiments were performed using a Zeiss inverted fluorescent microscope (Observer Z1). The zebrafish toxicological test (Zebratox) was realized as follows: the 24 h post-fertilization embryos were arrayed by hand with one embryo per well in black-walled 96-well microplates for fluorescence assays (Perkin Elmer, Waltham, MA, USA). The embryos were treated before hatching from 0 to 72 h post-fertilization. The 20 mM DMSO stock chemicals were diluted in fish water and added to the wells at final concentrations from 0.0 2µM to 5 μM. The negative control (0.25% DMSO) was added to each replicate plate. The experiments were realized in triplicate in three independent plates. […] The zebrafish fertilized eggs were provided by the ImPACcell-Biosit Zebrafish facilities (Rennes, France).

[4] = test system: zebrafish Danio rerio embryos; assay: Zebrafish embryo toxicity assay (Zebratox, FET); details: low doses
Procedure: as §5, §6, §7

Compound	IC50 (HCT 116) [µM]	IC50 (MCF7) [µM]	IC50 (Caco2) [µM]	melting point [°C]	IC50 (tumor cell lines) [µM]	IC50 (PC3) [µM]	IC50 (Huh7 D12) [µM]	Selectivity Index (SI) HCT 116 (HCT 116)	IC50 (MDA MB468) [µM]	IC50 (MDA MB231) [µM]	IC50 (Fibroblasts) [µM]	also measured
2-amino-4-(3-bromo-4,5-dimethoxyphenyl)-4H-chromene-3-carbonitrile [MX 58151]												GI50 (T47D breast cancer cells): 0.037 µM
CNC(=O)c1cc(Oc2ccc(NC(=O)Nc3ccc(Cl)c(C(F)(F)F)c3)cc2)ccn1 [sorafenib, reference compound]												effect on angiogenesis of the vessels [2]: absence of angiogenesis of the vessels; effect on angiogenesis of the vessels ([2]; listed as Sorafenib): inhibition of the dorsal vessel vascularization; toxicity, fraction of the embryos [3]: 4/5; development of the embryos ([4]; 24 hpf): normal development; morphological development of the embryos ([4]; 48 hpf): morphological development is delayed

The next lines start with results.

IC50 (HCT 116) [µM]	IC50 (MCF7) [µM]	IC50 (Caco2) [µM]	melting point [°C]	IC50 (tumor cell lines) [µM]	IC50 (PC3) [µM]	IC50 (Huh7 D12) [µM]	Compound	Selectivity Index (SI) HCT 116 (HCT 116)	IC50 (MDA MB468) [µM]	IC50 (MDA MB231) [µM]	IC50 (Fibroblasts) [µM]	also measured
10	> 25	> 25	232 to 234	> 25	> 25	> 25	N=c1c2c(ncn1/N=C/c1ccccc1)Oc1ccccc1C2 [10f, (3E) 3-N-(Phenylmethylidene)amino-4-imino-3,5-dihydro-4H-chromeno[2,3-d]pyrimidine]	> 2.5	> 25	> 25	> 25	IC50 (PANC1): > 25 µM
0.62	0.45	0.8	252 to 254		0.77	0.49	COc1cccc2c1Oc1ncn(/N=C/c3ccccc3)c(=N)c1C2 [10i, (3E) 3-N-(Phenylmethylidene)amino-4-imino-9-methoxy-3,5-dihydro-4H-chromeno[2,3-d]pyrimidine]	> 40.3	0.3	0.6	> 25	Selectivity Index (SI) MCF7 (MCF7; SI = IC50 fibroblasts/IC50 on MCF7): > 55.6; Selectivity Index (SI) MDA MB468 (MDA MB468; SI = IC50 fibroblasts/IC50 on MDA MB468): > 83.3; Selectivity Index (SI) MDA MB231 (MDA MB231; SI = IC50 fibroblasts/IC50 on MDA MB231): > 41.7; selectivity ratio at 48 h [1]: > 31.3; Selectivity Index (SI) PC3 (PC3; SI = IC50 fibroblasts/IC50 on PC3): > 32.5; Selectivity Index (SI) Huh7 D12 (Huh7 D12; SI = IC50 fibroblasts/IC50 on Huh7 D12): > 51.0
> 25	> 25	> 25	≥ 260	> 25	> 25	> 25	N=c1c2c(ncn1/N=C/c1ccccc1)Oc1ccc3ccccc3c1C2 [10l, (10E) 10-N-(Phenylmethylidene)amino-11-imino-11H-naphto[1′,2′:5,6]pyrano[2,3-d]pyrimidine]		> 25	> 25	> 25	
